Measured values: ChEMBL document CHEMBL1122072, “Structure-activity correlations of cytochalasins. Novel halogenated and related cytochalasin C and D derivatives” (1982)
pIC50: −log10 of the molar value.

organism: Mus musculus; assay: (§1) Evaluated for the inhibition of cell-free gelation in Ehrlich Ascites tumor extracts; format: functional; conditions: not given

SMILES | ID50 [nM]
CC(=O)OC1/C=C\C(C)(O)C(=O)C(C)C/C=C/C2C(O)C(CC#N)=C(C)C3C(Cc4ccccc4)NC(=O)C123 (configuration not stated) | 7700
CC(=O)OC1/C=C\C(C)(O)C(=O)C(C)C/C=C/C2C(O)C(Br)(CBr)C(C)C3C(Cc4ccccc4)NC(=O)C123 (configuration not stated) | 4500

tested on: Ehrlich; assay: as §1; format: functional; conditions: Mus musculus, read-out: ID50 (the source's name)

pIC50 | SMILES
6.06 | CC(=O)OC1/C=C\C(C)(O)C(=O)C(C)C/C=C/C2C(O)C(CN=[N+]=[N-])=C(C)C3C(Cc4ccccc4)NC(=O)C123 (configuration not stated)
6.13 | CC(=O)OC1/C=C\C(C)(O)C(=O)C(C)C/C=C/C2C(O)C(CBr)=C(C)C3C(Cc4ccccc4)NC(=O)C123 (configuration not stated)
6.22 | CC(=O)OC1/C=C\C(C)(O)C(=O)C(C)C/C=C/C2C(O)C(CI)=C(C)C3C(Cc4ccccc4)NC(=O)C123 (configuration not stated)

SMILES | pIC50
C=C1C(C)C2C(Cc3ccccc3)NC(=O)C23C(OC(C)=O)/C=C\C(C)(O)C(=O)C(C)C/C=C/C3C1O (configuration not stated) | 6.68
CC(=O)OC1/C=C\C(C)(O)C(=O)C(C)C/C=C/C2C(O)C(C)=C(C)C3C(Cc4ccccc4)NC(=O)C123 (configuration not stated) | 6.46
